Key:
[1] = test system: Puccinia recondita (f sp. tritici); conditions: 150 grams per hectare; wheat cultivar Fielder; evaluated after 12 days
Sphaerotheca fulginea = conditions: 150 grams per hectare; cucumber cultivar Bush Champion; scored seven days after inoculation
[2] = test system: Colletotrichum lagenarium; conditions: 150 grams per hectare; cucumber cultivar Bush Champion
[3] = test system: Pseudoperonospora cubensis; conditions: 9 grams per hectare; detached cucumber leaf; five days

SMILES | percent disease control, wheat leaf rust [1] [%] | percent disease control, cucumber powdery mildew (Sphaerotheca fulginea) [%] | percent disease control, cucumber anthracnose [2] [%] | percent disease control, cucumber downy mildew [3] [%]
CNC(=O)C(=NOC)c1ccccc1CON=C(C)C1CC1(C)c1ccccc1 (stereo not drawn) [Compound 3.11, (E,E and Z,E)-N-Methyl 2-[2-((trans-1-(2-phenyl-2-methyl-cyclopropyl)ethylidene)aminooxymethyl)phenyl]-2-methoxyiminoacetamide] | 100 | 100 | 100 | 
CNC(=O)/C(=N/OC)c1ccccc1CO/N=C(\C)C1CC1(C)c1ccc(Cl)cc1 (centres unmarked) [Compound 3.14A, (E,E)-N-Methyl 2-[2-((1-(2-(4′-chlorophenyl)-2-methylcyclopropyl)ethylidene)aminooxymethyl)phenyl]-2-methoxyiminoacetamide] | 100 | 100 | 100 | 
CON=C(C(=O)OC)c1ccccc1CON=C(C)C1CC1c1c(Cl)cccc1Cl (stereo not drawn) [Compound 8.1, Methyl 2-[2-((trans-1-(2-(2′,6′-dichlorophenyl)cyclopropyl)ethylidene)aminooxymethyl)phenyl]-2-methoxyiminoacetate] |  | 100 |  | 
CNC(=O)C(=NOC)c1ccccc1CON=C(C)C1CC1c1c(Cl)cccc1Cl (stereo not drawn) [Compound 9.1, N-Methyl 2-[2-((trans-1-(2-(2′,6′-dichlorophenyl)cyclopropyl)ethylidene)aminooxymethyl)phenyl]-2-methoxyiminoacetamide] | 100 | 100 | 100 | 
CNC(=O)C(=NOC)c1ccccc1CON=C(C)C1CC1c1c(F)cccc1F (stereo not drawn) [Compound 9.7A, N-Methyl 2-[2-((trans-1-(2-(2′,6′-difluorophenyl)cyclopropyl)ethylidene)aminooxymethyl)phenyl]-2-methoxyiminoacetamide] | 100 | 100 | 100 | 100

From patent US6348627B1 (priority 1999, dated 2002)
